# Laboratory results published in PubChem BioAssay AID1845204 (Molecular Pharmacology Branch, DTP, NCI, 2023).
# System: HSSY-II tumor spheroid viability
# Assay: Anticancer human tumor HSSY-II cell line growth inhibition;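 also: spheroids exposed to compounds for seven days before reading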;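 as to viability, T/C: percent of DMSO vehicle control viability so 100% = untreated level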
# Conditions: spheroids with HUVEC and MSC; for viability, T/C: stronger effect = lower value
# Procedure, shortened: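 Complex tumor spheroids combined malignant cells with endothelial cells and mesenchymal stem cells. DNA-damaging drugs and DNA repair inhibitors were tested alone and in combination, at half-log dilutions down from clinical Cmax (top 10 microM if Cmax unknown), 0.25% DMSO final.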
# [1] = curve of first compound, second compound 30 pM
# [2] = curve of first compound, second compound 94.9 pM
# [3] = curve of first compound, second compound 0.0003 µM
# [4] = curve of first compound, second compound 0.000949 µM
# [5] = curve of first compound, second compound 0.003 µM
smiles,measurement,setting,value
CNCc1ccc(-c2cc(-c3nc(-c4ccc(S(=O)(=O)C(C)C)cc4)cnc3N)on2)cc1 + COc1cc2c(cc1O)CCNC21CSC2c3c(OC(C)=O)c(C)c4c(c3C(COC1=O)N1C(O)C3Cc5cc(C)c(OC)c(O)c5C(C21)N3C)OCO4,IC50,[1],31.5 nM
same,IC50,[2],11.5 nM
same,IC50,[3],< 9.49 nM
same,IC50,[4],< 9.49 nM
same,IC50,[5],< 9.49 nM
same,"viability, T/C","second compound 30 pM, first compound 0.00949 µM",93.8%
same,"viability, T/C","second compound 30 pM, first compound 0.03 µM",51.9%
same,"viability, T/C","second compound 30 pM, first compound 0.0949 µM",7.62%
same,"viability, T/C","second compound 30 pM, first compound 0.3 µM",4.24%
same,"viability, T/C","second compound 30 pM, first compound 0.949 µM",1.27%
same,"viability, T/C","second compound 30 pM, first compound 3 µM",0.11%
same,"viability, T/C","second compound 94.9 pM, first compound 0.00949 µM",57%
same,"viability, T/C","second compound 94.9 pM, first compound 0.03 µM",15.9%
same,"viability, T/C","second compound 94.9 pM, first compound 0.0949 µM",4.64%
same,"viability, T/C","second compound 94.9 pM, first compound 0.3 µM",4.08%
same,"viability, T/C","second compound 94.9 pM, first compound 0.949 µM",1.02%
same,"viability, T/C","second compound 94.9 pM, first compound 3 µM",0.1%
same,"viability, T/C","second compound 0.0003 µM, first compound 0.00949 µM",10.1%
same,"viability, T/C","second compound 0.0003 µM, first compound 0.03 µM",5.43%
same,"viability, T/C","second compound 0.0003 µM, first compound 0.0949 µM",3.66%
same,"viability, T/C","second compound 0.0003 µM, first compound 0.3 µM",3.41%
same,"viability, T/C","second compound 0.0003 µM, first compound 0.949 µM",0.72%
same,"viability, T/C","second compound 0.0003 µM, first compound 3 µM",0.12%
same,"viability, T/C","second compound 0.000949 µM, first compound 0.00949 µM",2.93%
same,"viability, T/C","second compound 0.000949 µM, first compound 0.03 µM",2.47%
same,"viability, T/C","second compound 0.000949 µM, first compound 0.0949 µM",2.03%
same,"viability, T/C","second compound 0.000949 µM, first compound 0.3 µM",1.1%
same,"viability, T/C","second compound 0.000949 µM, first compound 0.949 µM",0.09%
same,"viability, T/C","second compound 0.000949 µM, first compound 3 µM",0.15%
same,"viability, T/C","second compound 0.003 µM, first compound 0.00949 µM",0.22%
same,"viability, T/C","second compound 0.003 µM, first compound 0.03 µM",0.27%
same,"viability, T/C","second compound 0.003 µM, first compound 0.0949 µM",0.21%
same,"viability, T/C","second compound 0.003 µM, first compound 0.3 µM",0.2%
same,"viability, T/C","second compound 0.003 µM, first compound 0.949 µM",0.18%
same,"viability, T/C","second compound 0.003 µM, first compound 3 µM",0.25%
CC(C)n1c(=O)n(C)c2cnc3cc(F)c(-c4ccc(OCCCN5CCCCC5)nc4)cc3c21 + COc1cc2c(cc1O)CCNC21CSC2c3c(OC(C)=O)c(C)c4c(c3C(COC1=O)N1C(O)C3Cc5cc(C)c(OC)c(O)c5C(C21)N3C)OCO4,IC50,[1],> 10000 nM
same,IC50,[2],7160 nM
same,IC50,[3],< 31.6 nM
same,IC50,[4],< 31.6 nM
same,IC50,[5],< 31.6 nM
same,"viability, T/C","second compound 30 pM, first compound 0.0316 µM",128%
same,"viability, T/C","second compound 30 pM, first compound 0.1 µM",120%
same,"viability, T/C","second compound 30 pM, first compound 0.316 µM",109%
same,"viability, T/C","second compound 30 pM, first compound 1 µM",114%
same,"viability, T/C","second compound 30 pM, first compound 3.16 µM",91.9%
same,"viability, T/C","second compound 30 pM, first compound 10 µM",71.4%
same,"viability, T/C","second compound 94.9 pM, first compound 0.0316 µM",75.3%
same,"viability, T/C","second compound 94.9 pM, first compound 0.1 µM",73.6%
same,"viability, T/C","second compound 94.9 pM, first compound 0.316 µM",70%
same,"viability, T/C","second compound 94.9 pM, first compound 1 µM",84.1%
same,"viability, T/C","second compound 94.9 pM, first compound 3.16 µM",73.3%
same,"viability, T/C","second compound 94.9 pM, first compound 10 µM",40.2%
same,"viability, T/C","second compound 0.0003 µM, first compound 0.0316 µM",13.2%
same,"viability, T/C","second compound 0.0003 µM, first compound 0.1 µM",13.8%
same,"viability, T/C","second compound 0.0003 µM, first compound 0.316 µM",18%
same,"viability, T/C","second compound 0.0003 µM, first compound 1 µM",17.2%
same,"viability, T/C","second compound 0.0003 µM, first compound 3.16 µM",13.9%
same,"viability, T/C","second compound 0.0003 µM, first compound 10 µM",15.2%
same,"viability, T/C","second compound 0.000949 µM, first compound 0.0316 µM",3.04%
same,"viability, T/C","second compound 0.000949 µM, first compound 0.1 µM",3.45%
same,"viability, T/C","second compound 0.000949 µM, first compound 0.316 µM",3.44%
same,"viability, T/C","second compound 0.000949 µM, first compound 1 µM",5.73%
same,"viability, T/C","second compound 0.000949 µM, first compound 3.16 µM",4.91%
same,"viability, T/C","second compound 0.000949 µM, first compound 10 µM",3.99%
same,"viability, T/C","second compound 0.003 µM, first compound 0.0316 µM",0.18%
same,"viability, T/C","second compound 0.003 µM, first compound 0.1 µM",0.2%
same,"viability, T/C","second compound 0.003 µM, first compound 0.316 µM",0.22%
same,"viability, T/C","second compound 0.003 µM, first compound 1 µM",0.2%
same,"viability, T/C","second compound 0.003 µM, first compound 3.16 µM",0.2%
same,"viability, T/C","second compound 0.003 µM, first compound 10 µM",0.31%
COc1cc2c(cc1O)CCNC21CSC2c3c(OC(C)=O)c(C)c4c(c3C(COC1=O)N1C(O)C3Cc5cc(C)c(OC)c(O)c5C(C21)N3C)OCO4 (centres undefined),"viability, T/C",compound 0.0003 µM,16.7% [middle of 10 runs]
same,"viability, T/C",compound 0.000949 µM,3.25% [middle of 9 runs]
same,"viability, T/C",compound 0.003 µM,0.2% [middle of 7 runs]
same,IC50,"compound alone, run of 12/12/2019",0.187 nM [middle of 10 runs]
